Measured values as given in PubChem BioAssay (NCI).
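1) Cells in 96-well plates. 2) Compound, 48 h, 5 concentrations. 3) Linear interpolation between surrounding doses. 4) Unreached endpoint = highest concentration. TGI: concentration producing complete growth inhibition.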

What was measured:
Assay in all cases: NCI tumour cell line growth inhibition, 48 h
[1] = tested on: IGROV1 ovarian
[2] = tested on: K-562 leukemia
[3] = tested on: SK-MEL-5 melanoma
[4] = tested on: UACC-62 melanoma
[5] = tested on: SF-295 CNS
[6] = tested on: OVCAR-4 ovarian
[7] = tested on: MALME-3M melanoma
[8] = tested on: NCI-H226 lung
[9] = tested on: EKVX NSCLC
[10] = tested on: MDA-MB-435
[11] = tested on: SNB-75 CNS
[12] = tested on: T-47D breast
[13] = tested on: HCT-116 colon
[14] = tested on: SF-268 CNS
[15] = tested on: DU-145 prostate
[16] = tested on: TK-10 renal
[17] = tested on: NCI-H23 lung
[18] = tested on: HOP-92 NSCLC
[19] = tested on: SW-620 colon
[20] = tested on: PC-3 prostate
[21] = tested on: OVCAR-3 ovarian
[22] = tested on: SNB-19 CNS
[23] = tested on: HS 578T breast
[24] = tested on: RPMI-8226 leukemia
[25] = tested on: SK-MEL-2 melanoma
[26] = tested on: U251 CNS
[27] = tested on: ACHN renal
[28] = tested on: HCT-15 colon
[29] = tested on: SK-OV-3 ovarian
[30] = tested on: SN12C renal
[31] = tested on: BT-549 breast
[32] = tested on: NCI/ADR-RES ovarian
[33] = tested on: HOP-62 NSCLC
[34] = tested on: OVCAR-8 ovarian
[35] = tested on: MDA-N
[36] = tested on: 786-0 renal
[37] = tested on: HL-60(TB) leukemia
[38] = tested on: COLO 205 colon
[39] = tested on: UO-31 renal
[40] = tested on: RXF 393 renal
[41] = tested on: SK-MEL-28 melanoma
[42] = tested on: NCI-H522 lung
[43] = tested on: MOLT-4 leukemia
[44] = tested on: CCRF-CEM leukemia
[45] = tested on: CAKI-1 renal
[46] = tested on: KM12 colon
[47] = tested on: MDA-MB-231 breast
[48] = tested on: M14 melanoma
[49] = tested on: OVCAR-5 ovarian
[50] = tested on: HT29 colon
[51] = tested on: A549 NSCLC
[52] = tested on: UACC-257 melanoma

Measured: TGI

Cc1cc(S(=O)(=O)O)ccc1N=Nc1c(O)ccc2ccccc12
> 100 µM: all assays above
